Results on one substance are retold here after US8163699B2, “Method for the treatment of valvular disease” (Montreal Heart Institute, priority 2006, dated 2012).

Values joined by “and” are separate entries in the source; they are usually repeats but may differ in a detail not shown here. Identical values can stand only once.

Experiment [1] is described as follows: Serum lipids and calcemia in rabbit model of aortic valve stenosis. In kind it is in vivo, New-Zealand White rabbits. To be noted: for HDL-cholesterol / total cholesterol levels: treated group. The procedure: (§1) The animals then returned to a standard diet (without vitamin D2) to mimic cholesterol lowering and were randomly assigned to receive either saline (control group, n=8) or the ApoA-1 mimetic peptide (treated group, n=7). Rabbits were given injections through the marginal ear vein of saline or of the ApoA-1 mimetic peptide (25 mg/kg) complexed with phospholipids (Compound A), 3 times per week for 2 weeks. Echocardiograms were performed serially (see Echocardiography Methods) every 3 to 4 days throughout the randomized treatment period. Two days after their last infusion, the animals underwent a final echocardiogram and were sacrificed, and the aortic valves were harvested for histological analyses. Blood samples were obtained through the ear artery at baseline, prior to treatment and before sacrifice. Total cholesterol, HDL cholesterol, triglycerides and calcium levels were measured with an automated filter photometer system (Dimension RxL Max, Dade Behring, Ill.).
Data are presented as mean±standard deviation. For the “pre-treatment” period, repeated measures analysis of variance (ANOVA) models were used to study the echocardiographic and serum measurements across time and between groups (treated vs. control groups). Models with time, group and group×time interaction as independent variables were used and comparisons between groups at a given time point were undertaken only in the presence of a significant group×time interaction. Otherwise, global conclusions were drawn based on the main group effects of the model. For the randomized treatment period, repeated measures analysis of covariance (ANCOVA) models were used to study the echocardiographic and serum measurements across time and between groups (treated vs. control groups), adjusted for the baseline value of the response variable. The group×time interaction was also included in the ANCOVA models and comparisons between groups at a given time point were undertaken only in the presence of a significant group×time interaction. Otherwise, global conclusions were drawn based on the main group effects of the model. Histological variables were compared between treated and control groups using Student t-test. Relationships between histomorphometry and echocardiographic variables were evaluated using Pearson correlation coefficient. All analyses were performed with SAS release 8.2 (SAS Institute Inc., Cary, N.C.) and conducted at the 0.05 significance level.

The test system of experiment [2] is aortic valve stenosis (AVS). The experiment is described as follows: Echocardiography (aortic valve area, aortic valve thickness) in rabbit model of aortic valve stenosis. Type of experiment: in vivo, New-Zealand White rabbits. To be noted: for Aortic valve area (AVA): 25 mg/kg i.v. 3 times per week; for Aortic valve thickness: treated rabbits.
Description: A complex animal model of aortic valve stenosis has been developed in rabbits.
An animal model adapted from that described by Drolet et al. (12) was used. Fifteen male New-Zealand White rabbits (2.7-3.0 kg, aged 12-13 weeks) were fed with a 0.5% cholesterol-enriched diet (Harlan, Indianapolis, Ind.) plus vitamin D2 (50000 UI per day; Sigma, Markham, Canada) in the drinking water until significant AVS, as defined by a decrease ≧10% of aortic valve area (AVA) or of the transvalvular velocities ratio (V1/V2), could be detected by echocardiography (12.9±2.4 weeks).
as §1
Transthoracic echocardiographic studies were performed at baseline, on a weekly basis starting at 8 weeks of hypercholesterolemic diet until significant AVS developed, and then after 4, 7, 10 and 14 days of ApoA-1 mimetic peptide or saline control treatments. Studies were carried out with an S12 probe using a standard echocardiographic system (Sonos 5500, Philips Medical Imaging, MA). Intra-muscular injections of ketamine (45 mg/kg) and midazolam (0.75 mg/kg) were used for sedation.
Parasternal long and short-axis views of the aortic valve were recorded to assess leaflet morphology. Left ventricular outflow tract (LVOT) diameter was measured in a zoomed parasternal long-axis view, and LVOT cross-sectional area (CSALVOT) was calculated according to: CSALVOT=π(DLVOT/2)^2. LVOT velocity (V1) and velocity time integral (VTILVOT) were obtained with pulsed-wave Doppler sampled proximal to the aortic valve in the apical 5-chamber view. Continuous wave (CW) Doppler interrogation across the aortic valve was used to obtain transvalvular maximal velocity (V2) and VTI (VTIAO) in the same view. V1/V2 ratio was calculated in the pre-treatment period to determine AVS development. Aortic valve area (AVA) was obtained at each time point by the continuity equation: AVA=CSALVOT×(VTILVOT/[…]). Aortic valve thickness in its middle portion was measured at end-diastole in a zoomed parasternal long-axis view at baseline, before randomized therapy, and at the final echocardiographic exam.
The average of three consecutive cardiac cycles was used for each measurement. Special care was taken to obtain similar imaging planes on serial examinations by reviewing previous recordings before follow-up study. All echocardiographic imaging and measurements were performed throughout the protocol by the same experienced investigator blinded to randomized treatment assignment.
Data are presented as mean±standard deviation. For the “pre-treatment” period, repeated measures analysis of variance (ANOVA) models were used to study the echocardiographic and serum measurements across time and between groups (treated vs. control groups). Models with time, group and group×time interaction as independent variables were used and comparisons between groups at a given time point were undertaken only in the presence of a significant group×time interaction. Otherwise, global conclusions were drawn based on the main group effects of the model. […]

[3] abbreviates: at the time of randomization (pre-treatment value).
The mark [4] stands for this setting: treated group, after 7 days of treatment.
Setting [5] is: treated group, after 10 days of treatment.
The mark [6] stands for this setting: treated group, after 14 days of treatment.

Consider “H-Pro-Val-Leu-Asp-Leu-Phe-Arg-Glu-Leu-Leu-Asn-Glu-Leu-Leu-Glu-Ala-Leu-Lys-Gln-Lys-Leu-Lys-OH (H-PVLDLFRELLNELLEALKQKLK-OH; not fully specified) [ApoA-1 mimetic peptide, ApoA-1 mimetic peptide complexed with phospholipids, mimicking nascent HDL]”, for which the values for the HDL-cholesterol in experiment [1] (at end of treatment) and in experiment [1] (setting [3]) were 0.45 ± 0.17 mmol/L and 0.50 ± 0.15 mmol/L, respectively. The total cholesterol levels in experiment [1] (at end of treatment) was 17.57 ± 10.32 mmol/L; in experiment [1] (setting [3]) it was 20.13 ± 5.18 mmol/L. Further, the triglyceride levels entry in experiment [1] (treated vs. control group during treatment period, P=0.544) was “similar”. Also, the “Aortic valve area (AVA)” value stood at 21.9±3.6 mm^2 in experiment [2] (setting [4]), 23.0±4.1 mm^2 in experiment [2] (setting [5]) and 23.8±3.1 mm^2 in experiment [2] (setting [6]). Besides, the “relative increase of AVA” value in experiment [2] (setting [4]) was 14.2±3.5% and 14.2%; in experiment [2] (setting [5]), 19.8±3.5% and 19.8%; in experiment [2] (setting [6]), 24.6±2.0% and 24% and 24.6%. Moreover, in experiment [2] (treated group, within 14 days of treatment), the “decrease of aortic valve thickness” value stood at 21%. Also, the Aortic valve thickness in experiment [2] (at end of treatment (14 days)) is given as 0.075±0.033 cm; in experiment [2] (before randomization (pre-treatment value)) it was 0.094±0.034 cm.
